Assay results published in patent US11053516B2, “Glucose composition, microbial fermentation raw material, and method of producing chemical product” (Toray Industries, Inc., priority 2016, dated 2021).

From the text: Further, the glucose composition was adjusted to a final pH of 7 using 6 N sodium hydroxide.

- Solubility in water: not dissolved
SMILES: O=C(O)/C=C/c1ccc(O)cc1 [Coumaric acid, trans-p-coumaric acid]
